Laboratory results: patent publication US20250099596A1, “TETRAHYDRONAPHTHALENE COMPOUND, AND PREPARATION METHOD THEREFOR AND USE THEREOF IN MEDICINE” (Jiangsu Hengrui Pharmaceuticals Co., Ltd., priority 2021, published 2025)
≈ marks a conversion by molar mass, not a printed value. Read-outs that look alike come from different tables or passages of the source.

Experiments:
MCF7/ERα Y537S cells = experiment: Inhibitory activity on proliferation of ERα mutant-expressing MCF7 cells; type: cell-based; details: Homo sapiens, 144 h, 6 days incubation, CellTiter-Glo, read-out: IC50 (nM), inhibition of proliferation of ERα mutant-expressing MCF7 cells
Procedure, shortened: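 MCF7 cells stably expressing ERα Y537S (lentiviral) were seeded in 2% FBS medium and exposed for 6 days at 37 °C to 9 concentrations (4-fold dilution from 1000 nM, 0.5% DMSO control). Viability read by CellTiter-Glo luminescence; IC50 calculated from concentration–signal data.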

[1] = Pharmacokinetic evaluation, beagle test; type: in vivo; details: beagles; for AUC(0-t): read-out: Area under curve AUC0-t; for half-life: read-out: Half-life T1/2 (converted); for Cmax: read-out: Plasma concentration Cmax
Procedure: With beagles as test animals, the plasma concentrations of the compound of Example 26-1 and Comparative Example 1 were determined by LC/MS/MS at different time points after intragastric (i.g.)/intravenous (i.v.) administration to beagles. The pharmacokinetic behavior of the compound of the present disclosure in beagles was studied and its pharmacokinetic profile was evaluated.
The compound of Example 26-1 and Comparative Example 1 (see patent WO2018102725A1, Example 411), whose structure is shown below:
Sixteen beagles, of which half were male and half female, were evenly divided into 4 groups. The beagles were provided by Shanghai Medicilon Inc. The 4 groups were fasted overnight and then dosed intragastrically and intravenously.
Certain amounts of the compound of Example 26-1 and the compound of Comparative Example 1 were weighed out and mixed with 5% (v/v) DMSO+30% (v/v) PG+30% (v/v) PEG400+35% (v/v) normal saline to make 0.4 mg/mL clear solutions (for the intragastric administration groups) and 0.25 mg/mL clear solutions (for the intravenous administration groups).
The intragastric administration groups: the dose was 2.0 mg/kg, and the volume was 5.0 mL/kg.
The intravenous administration groups: the dose was 0.5 mg/kg, and the volume was 2.0 mL/kg.
The intragastric administration group: Blood (1.0 mL) was collected from the jugular vein or the forelimb vein into EDTA-K2 anticoagulation tubes before administration and 0.25 h, 0.5 h, 1.0 h, 2.0 h, 4.0 h, 6.0 h, 8.0 h, 12.0 h and 24.0 h after administration and centrifuged at 10,000 rpm for 5 min (4° C.). The plasma was separated within 1 h and stored at −80° C. before analysis. The process from blood collection to centrifugation was performed in an ice bath. Three hours after administration, feeding was resumed.
The intravenous administration groups: Blood was collected before administration and 5 min, 0.25 h, 0.5 h, 1.0 h, 2.0 h, 4.0 h, 8.0 h, 12.0 h and 24 h after administration and processed as in the intragastric administration groups.
The plasma concentrations of the test compounds were determined after administration of different concentrations of the test compounds to beagles: plasma samples (50 μL) were collected from beagles at various time points after administration, and proteins were precipitated with 500 μL of methanol (containing 100 ng/mL internal standard Verapamil) for each of the samples; the mixtures were vortexed for 1 min and centrifuged at 18,000 g for 7 min. 500 μL of supernatant was transferred to a 96-well plate. 1 μL of supernatant was collected for LC/MS/MS analysis.

[2] = Solubility in FassIF and FessIF solution; type: physicochemical; details: thermodynamic from solid
Procedure: Solution (A): 4.441 g of NaH2PO4·2H2O, 0.348 g of NaOH granules and 6.186 g of NaCl were added to 900 mL of ultrapure water and well mixed, and the solution was adjusted to pH 6.5±0.05 with 1 M NaOH, brought to volume (1000 mL) with water, and stored at 4° C. for future use.
FaSSIF solution (B): 0.161 g of sodium taurocholate (NaTC) and 59 mg of lecithin were dissolved in 20 mL of solution (A). The resulting solution was vigorously stirred overnight to form a clear micellar solution, and solution (A) was added to make a volume of 100 mL. The resulting solution was stored at 4° C. for future use (not more than 2 weeks).
Solution (A): 20.2 g of NaOH granules, 43.25 g of acetic acid and 59.37 g of sodium chloride were precisely weighed out and dissolved in a proper amount of ultrapure water. The solution was brought to volume (5 L), adjusted to pH 5.0 with 1 M NaOH or 1 M HCl, and stored at 4° C. for future use.
FeSSIF solution (B): 0.80652 g of sodium taurocholate (NaTC) and 295.5 mg of lecithin were dissolved in 25 mL of solution (A). […]
3.1. […] 10 μL of the stock solution (concentration 10 mM, dissolved in DMSO) was precisely measured out and well mixed with 990 μL of an organic solvent mixture (usually DMSO:acetonitrile:ethanol=1:1:1) in a 2 mL sample flask to obtain a 100 μM clear sample solution as a reference solution. […]

[3] = both sexes, beagle, dog, plasma, iv, i.v., 0.5 mg/kg
[4] = both sexes, beagle, dog, plasma, po, i.g., 2.0 mg/kg

## CC(C)C[C@H]1CCc2cc(O)ccc2[C@H]1c1ccc(N2CCC(CN3CCN(c4ccc5c(c4)CN([C@H]4CCC(=O)NC4=O)C5=O)CC3)CC2)cc1 [Example 26-1, (S)-3-(5-(4-((1-(4-((1R,2R)-6-Hydroxy-2-isobutyl-1,2,3,4-tetrahydronaphthalen-1-yl)phenyl)piperidin-4-yl)methyl)piperazin-1-yl)-1-oxoisoindolin-2-yl)piperidine-2,6-dione]
MCF7/ERα Y537S cells
  IC50: 1.67 nM
[1]; i.v., 0.5 mg/kg
  Clearance CL/F: 0.102 L/h/kg
[1]; [3]
  AUC(0-t): 4.07 µg·h/mL
  half-life: 9.7 h
  Cmax: 1.6 µg/mL
[1]; both sexes, beagle, dog, plasma, po, i.g., 2.0 mg/kg, read-out: Apparent distribution volume Vz/F
  Vd/F: 5.67 L/kg
[1]; [4]
  AUC(0-t): 4.82 µg·h/mL
  half-life: 10.4 h
  Cmax: 0.436 µg/mL
[1]; both sexes, beagle, dog, plasma, po, i.g., 2.0 mg/kg, read-out: Clearance CL/F
  CL/F: 0.372 L/h/kg
[2]; FassIF solution pH 6.5, 37° C., read-out: Solubility in FassIF solution
  solubility at 24 h: 97 µM (≈ 68.3 µg/mL)
[2]; FessIF solution pH 5.0, 37° C., read-out: Solubility in FessIF solution
  solubility at 24 h: 553 µM (≈ 389 µg/mL)
